Experimental data from patent EP0135429B1, “The synthesis of cyclopropane amino acids and peptides” (THE UNIVERSITY OF GEORGIA RESEARCH FOUNDATION, INC., priority 1983, dated 1992).
Peptide text beside a SMILES is read from it.

Tests used:
α-chymotrypsin = α-chymotrypsin (Bos taurus, UniProt P00766); settings: after 15 minutes at room temperature; 10:1 substrate:enzyme; 0.5 M ammonium acetate, pH 8
[1] = system: intestinal enzymes such as carboxypeptidase and chymotrypsin; experiment: hydrolysis in the gastrointestinal tract or blood of the consumer; assay type: in vivo; settings: after drinking a sweetened beverage

Row | does not hydrolyze cleave or break down in the gastrointestinal tract or blood [1] | Compound | hydrolysis by α-chymotrypsin (α-chymotrypsin)
1 |  | COC(=O)[C@H](Cc1ccccc1)NC(=O)[C@@H](N)CC(=O)O [aspartame] (H-Asp-Phe-OMe) | hydrolyzed
2 | at least 24 hours | COC(=O)[C@H](Cc1ccccc1)NC(=O)C1(N)CC1C(=O)O (some centres unmarked) [Example XXXVIII, 1-Aminocyclopropane-2-carboxylic Acid-1-carboxyl Phenylalanine Methyl Ester] | 
